Source: US20240384350A1, “METHODS OF TREATING CANCER WITH KINASE INHIBITORS” (BOARD OF REGENTS, THE UNIVERSITY OF TEXAS SYSTEM, priority 2021, published 2024)

Key:
Assay in all cases: Ba/F3 drug screening, Cell Titer Glo, IC50 Mut/WT
Format in all cases: cell-based
EGFR S784F = target: T1, EGFR S784F (Homo sapiens, UniProt P00533, S784F); details: Classical-Like, 72 hours
T1 construct: expressed in transfected cells; host or cells: Ba/F3 cells, retroviral pBabe-Puro vector (vector made by GeneScript from EGFR WT)
Procedure: (§1) Data represent the ratio of the IC50 value for a given TKI for cells with a classical-like EGFR mutation to the IC50 value for cells with wildtype EGFR.
(§2) Ba/F3 cell generation, drug screening, and IC50 approximations. Ba/F3 cells were obtained as a gift from Dr. Gordon Mills (MD Anderson Cancer Center), and maintained in RPMI (Sigma) containing 10% FBS, 1% penicillin/streptomycin, and 10 ng/ml recombinant mIL-3 (R&D Biosystems). To establish stable Ba/F3 cell lines, Ba/F3 cells were transduced with retroviruses containing mutant EGFR plasmids for 12-24 hours.
(§3) After 48-72 hours of transduction, 2 μg/ml puromycin (Invitrogen) was added to Ba/F3 cell lines in complete RPMI. To select for EGFR positive cell lines, cells were stained with PE-EGFR (Biolegend) and sorted by FACS. After sorting, EGFR positive cells were maintained in RPMI containing 10% FBS, 1% penicillin/streptomycin, and 1 ng/ml EGF to support cell viability. […] Shortly, cells were plated in 384-well plates (Greiner Bio-One) at 2000-3000 cells per well in technical triplicate. Seven different concentrations of TKIs or DMSO vehicle were added to reach a final volume of 40 μL per well. After 72 hours, 11 μL of Cell Titer Glo (Promega) was added to each well. Plates were incubated for a minimum of 10 minutes, and bioluminescence was determined using a FLUOstar OPTIMA plate reader (BMG LABTECH). Raw bioluminescence values were normalized to DMSO control treated cells, and values were plotted in GraphPad Prism. […] Drug screens were performed in technical triplicate on each plate and either duplicate or triplicate biological replicates.

EGFR Ex19del/T790M/G724S = target: T2, EGFR Ex19del/T790M/G724S (Homo sapiens, UniProt P00533, DEL746-750/G724S/T790M); details: T790M-like-3S, 72 hours
T2 construct: expressed in transfected cells; host or cells: Ba/F3

EGFR K757R = target: T3, EGFR K757R (Homo sapiens, UniProt P00533, K757R)
T3 construct: expressed in transfected cells; host or cells: Ba/F3

EGFR L858R T790M L792H = target: T4, EGFR L858R T790M L792H (Homo sapiens, UniProt P00533, L792H/L858R/T790M); details: T790M-like-3S, 72 hours
T4 construct: expressed in transfected cells; host or cells: Ba/F3
Procedure: Data represent the ratio of the IC50 value for a given TKI for cells with a T790M-like-3S EGFR mutation to the IC50 value for cells with wildtype EGFR.
as §2
(§4) After 48-72 hours of transduction, 2 μg/ml puromycin (Invitrogen) was added to Ba/F3 cell lines in complete RPMI. To select for EGFR positive cell lines, cells were stained with PE-EGFR (Biolegend) and sorted by FACS. After sorting, EGFR positive cells were maintained in RPMI containing 10% FBS, 1% penicillin/streptomycin, and 1 ng/ml EGF to support cell viability. Drug screening was performed as previously described^41,42. Shortly, cells were plated in 384-well plates (Greiner Bio-One) at 2000-3000 cells per well in technical triplicate. Seven different concentrations of TKIs or DMSO vehicle were added to reach a final volume of 40 μL per well. After 72 hours, 11 μL of Cell Titer Glo (Promega) was added to each well. Plates were incubated for a minimum of 10 minutes, and bioluminescence was determined using a FLUOstar OPTIMA plate reader (BMG LABTECH). Raw bioluminescence values were normalized to DMSO control treated cells, and values were plotted in GraphPad Prism. […] Drug screens were performed in technical triplicate on each plate and either duplicate or triplicate biological replicates.

[1] = target: T5, EGFR L747_K754del insATSPE (Homo sapiens, UniProt P00533, DEL747-749/K754E); details: T790M-like-3S, 72 hours
T5 construct: expressed in transfected cells; host or cells: Ba/F3 cells, retroviral pBabe-Puro vector

EGFR L858R/C797S = target: T6, EGFR L858R/C797S (Homo sapiens, UniProt P00533, C797S/L858R)
T6 construct: expressed in transfected cells; host or cells: Ba/F3

EGFR L861Q = target: T7, EGFR L861Q (Homo sapiens, UniProt P00533, L861Q); details: Classical-Like, 72 hours
T7 construct: expressed in transfected cells; host or cells: Ba/F3 cells, retroviral pBabe-Puro vector

EGFR G719A/R776C = target: T8, EGFR G719A/R776C (Homo sapiens, UniProt P00533, G719A/R776C)
T8 construct: expressed in transfected cells; host or cells: Ba/F3
Procedure: (§5) Data represent the ratio of the IC50 value for a given TKI for cells with a PACC EGFR mutation to the IC50 value for cells with wildtype EGFR.
as §2, §4

EGFR E709K L858R = target: T9, EGFR E709K L858R (Homo sapiens, UniProt P00533, E709K/L858R); details: Classical-Like, 72 hours
T9 construct: expressed in transfected cells; host or cells: Ba/F3 cells, retroviral pBabe-Puro vector

EGFR S768I/V769L = target: T10, EGFR S768I/V769L (Homo sapiens, UniProt P00533, S768I/V769L)
T10 construct: host or cells: Ba/F3
Procedure: as §5, §2, §4

EGFR Ex19del/C797S = target: T11, EGFR Ex19del/C797S (Homo sapiens, UniProt P00533, C797S/DEL746-750)
T11 construct: expressed in transfected cells; host or cells: Ba/F3
Procedure: as §5, §2, §4

EGFR L858R/L792H = target: T12, EGFR L858R/L792H (Homo sapiens, UniProt P00533, L792H/L858R)
T12 construct: expressed in transfected cells; host or cells: Ba/F3

EGFR L858R/T790M/L718Q = target: T13, EGFR L858R/T790M/L718Q (Homo sapiens, UniProt P00533, L718Q/L858R/T790M); details: T790M-like-3R, 72 hours
T13 construct: expressed in transfected cells; host or cells: Ba/F3

EGFR Ex19del L718Q = target: T14, EGFR Ex19del L718Q (Homo sapiens, UniProt P00533, DEL746-750/L718Q)
T14 construct: expressed in transfected cells; host or cells: Ba/F3
Procedure: as §5, §2, §4

EGFR E709K G719S = target: T15, EGFR E709K G719S (Homo sapiens, UniProt P00533, E709K/G719S)
T15 construct: expressed in transfected cells; host or cells: Ba/F3

EGFR L858R/L718V = target: T16, EGFR L858R/L718V (Homo sapiens, UniProt P00533, L718V/L858R)
T16 construct: host or cells: Ba/F3
Procedure: as §5, §2, §4

EGFR L747S = target: T17, EGFR L747S (Homo sapiens, UniProt P00533, L747S)
T17 construct: expressed in transfected cells; host or cells: Ba/F3

EGFR G719S = target: T18, EGFR G719S (Homo sapiens, UniProt P00533, G719S)
T18 construct: expressed in transfected cells; host or cells: Ba/F3

EGFR L858R/V834L = target: T19, EGFR L858R/V834L (Homo sapiens, UniProt P00533, L858R/V834L); details: Classical-Like, 72 hours
T19 construct: expressed in transfected cells; host or cells: Ba/F3 cells, retroviral pBabe-Puro vector

EGFR L718V = target: T20, EGFR L718V (Homo sapiens, UniProt P00533, L718V)
T20 construct: expressed in transfected cells; host or cells: Ba/F3

EGFR S720P = target: T21, EGFR S720P (Homo sapiens, UniProt P00533, S720P); details: Classical-Like, 72 hours
T21 construct: expressed in transfected cells; host or cells: Ba/F3 cells, retroviral pBabe-Puro vector (vector made by GeneScript from EGFR WT)
Procedure: as §1, §2, §3

EGFR N771dupN G724S = target: T22, EGFR N771dupN G724S (Homo sapiens, UniProt P00533, DUP771-771/G724S); details: Ex20, 72 hours
T22 construct: expressed in transfected cells; host or cells: Ba/F3 cells, retroviral pBabe-Puro vector (vector made by GeneScript from EGFR G724S, c.2313_2314insAAC)
Procedure: Data represent the ratio of the IC50 value for a given TKI for cells with an ex20ins EGFR mutation to the IC50 value for cells with wildtype EGFR.
as §2
After 48-72 hours of transduction, 2 μg/ml puromycin (Invitrogen) was added to Ba/F3 cell lines in complete RPMI. To select for EGFR positive cell lines, cells were stained with PE-EGFR (Biolegend) and sorted by FACS. After sorting, EGFR positive cells were maintained in RPMI containing 10% FBS, 1% penicillin/streptomycin, and 1 ng/ml EGF to support cell viability. Drug screening was performed as previously described^41,42. Shortly, cells were plated in 384-well plates (Greiner Bio-One) at 2000-3000 cells per well in technical triplicate. Seven different concentrations of TKIs or DMSO vehicle were added to reach a final volume of 40 μL per well. After 72 hours, 11 μL of Cell Titer Glo (Promega) was added to each well. Plates were incubated for a minimum of 10 minutes, and bioluminescence was determined using a FLUOstar OPTIMA plate reader (BMG LABTECH). Raw bioluminescence values were normalized to DMSO control treated cells, and values were plotted in GraphPad Prism. […] Drug screens were performed in technical triplicate on each plate and either duplicate or triplicate biological replicates. […] Statistical differences between groups were determined by ANOVA as described in the figure legends.

EGFR S768I = target: T23, EGFR S768I (Homo sapiens, UniProt P00533, S768I)
T23 construct: expressed in transfected cells; host or cells: Ba/F3

C=CC(=O)N[C@H]1C=C(C)c2c(-c3cnc4ccccc4c3)c3c(N)ncnc3n2C1 [TAS 6417]
ratio of IC50 for cells with mutant EGFR to IC50 for cells with wildtype EGFR (Mut/WT) (EGFR S784F): 0.01015
ratio of IC50 for cells with mutant EGFR to IC50 for cells with wildtype EGFR (Mut/WT) (EGFR Ex19del/T790M/G724S): 0.1997
ratio of the IC50 value for cells with a PACC EGFR mutation to the IC50 value for cells with wildtype EGFR (EGFR K757R; Ba/F3 cells, EGFR K757R (PACC), Mut/WT): 0.4608
ratio of IC50 for cells with mutant EGFR to IC50 for cells with wildtype EGFR (Mut/WT) (EGFR L858R T790M L792H): 9.536E−05
ratio of IC50 for cells with mutant EGFR to IC50 for cells with wildtype EGFR (Mut/WT) [1]: 0.0004661
ratio of the IC50 value for cells with a PACC EGFR mutation to the IC50 value for cells with wildtype EGFR (EGFR L858R/C797S; Ba/F3 cells, EGFR L858R/C797S (PACC), Mut/WT): 3.055
ratio of IC50 for cells with mutant EGFR to IC50 for cells with wildtype EGFR (Mut/WT) (EGFR L861Q): 0.02761
ratio of the IC50 value for cells with a PACC EGFR mutation to the IC50 value for cells with wildtype EGFR (EGFR G719A/R776C; Ba/F3 cells, EGFR G719A/R776C (PACC), Mut/WT): 3.055
ratio of IC50 for cells with mutant EGFR to IC50 for cells with wildtype EGFR (Mut/WT) (EGFR E709K L858R): 0.002607
ratio of the IC50 value for cells with a PACC EGFR mutation to the IC50 value for cells with wildtype EGFR (EGFR S768I/V769L; Ba/F3 cells, EGFR S768I/V769L (PACC), Mut/WT): 0.004702
ratio of the IC50 value for cells with a PACC EGFR mutation to the IC50 value for cells with wildtype EGFR (EGFR Ex19del/C797S; Ba/F3 cells, EGFR Ex19del/C797S (PACC), Mut/WT): 1.093
ratio of the IC50 value for cells with a PACC EGFR mutation to the IC50 value for cells with wildtype EGFR (EGFR L858R/L792H; Ba/F3 cells, EGFR L858R/L792H (PACC), Mut/WT): 0.004611
ratio of IC50 for cells with mutant EGFR to IC50 for cells with wildtype EGFR (Mut/WT) (EGFR L858R/T790M/L718Q): 3.055
ratio of the IC50 value for cells with a PACC EGFR mutation to the IC50 value for cells with wildtype EGFR (EGFR Ex19del L718Q; Ba/F3 cells, EGFR Ex19del L718Q (PACC), Mut/WT): 2.333
ratio of the IC50 value for cells with a PACC EGFR mutation to the IC50 value for cells with wildtype EGFR (EGFR E709K G719S; Ba/F3 cells, EGFR E709K G719S (PACC), Mut/WT): 0.007578
ratio of the IC50 value for cells with a PACC EGFR mutation to the IC50 value for cells with wildtype EGFR (EGFR L858R/L718V; Ba/F3 cells, EGFR L858R/L718V (PACC), Mut/WT): 0.01509
ratio of the IC50 value for cells with a PACC EGFR mutation to the IC50 value for cells with wildtype EGFR (EGFR L747S; Ba/F3 cells, EGFR L747S (PACC), Mut/WT): 0.06482
ratio of the IC50 value for cells with a PACC EGFR mutation to the IC50 value for cells with wildtype EGFR (EGFR G719S; Ba/F3 cells, EGFR G719S (PACC), Mut/WT): 0.01675
ratio of IC50 for cells with mutant EGFR to IC50 for cells with wildtype EGFR (Mut/WT) (EGFR L858R/V834L): 0.0005227
ratio of the IC50 value for cells with a PACC EGFR mutation to the IC50 value for cells with wildtype EGFR (EGFR L718V; Ba/F3 cells, EGFR L718V (PACC), Mut/WT): 0.02378
ratio of IC50 for cells with mutant EGFR to IC50 for cells with wildtype EGFR (Mut/WT) (EGFR S720P): 0.01035
ratio of IC50 for cells with mutant EGFR to IC50 for cells with wildtype EGFR (Mut/WT) (EGFR N771dupN G724S): 0.05113
ratio of the IC50 value for cells with a PACC EGFR mutation to the IC50 value for cells with wildtype EGFR (EGFR S768I; Ba/F3 cells, EGFR S768I (PACC), Mut/WT): 0.0846

COc1cc2ncnc(Nc3cccc(Cl)c3F)c2cc1OC(=O)N1CCN(C)C[C@H]1C [AZD3759]
ratio of IC50 for cells with mutant EGFR to IC50 for cells with wildtype EGFR (Mut/WT) (EGFR S784F): 0.0702
ratio of IC50 for cells with mutant EGFR to IC50 for cells with wildtype EGFR (Mut/WT) (EGFR Ex19del/T790M/G724S): 4.645
ratio of IC50 for cells with mutant EGFR to IC50 for cells with wildtype EGFR (Mut/WT) (EGFR K757R; PACC, K757R, Ba/F3, 72 hours): 0.7085
ratio of IC50 for cells with mutant EGFR to IC50 for cells with wildtype EGFR (Mut/WT) (EGFR L858R T790M L792H): 9.625
ratio of IC50 for cells with mutant EGFR to IC50 for cells with wildtype EGFR (Mut/WT) [1]: 4.604
ratio of IC50 for cells with mutant EGFR to IC50 for cells with wildtype EGFR (Mut/WT) (EGFR L858R/C797S; PACC, L858R/C797S, Ba/F3, 72 hours): 0.001895
ratio of IC50 for cells with mutant EGFR to IC50 for cells with wildtype EGFR (Mut/WT) (EGFR L861Q): 0.08924
ratio of IC50 for cells with mutant EGFR to IC50 for cells with wildtype EGFR (Mut/WT) (EGFR G719A/R776C; PACC, G719A/R776C, Ba/F3, 72 hours): 0.2006
ratio of IC50 for cells with mutant EGFR to IC50 for cells with wildtype EGFR (Mut/WT) (EGFR E709K L858R): 0.02202
ratio of IC50 for cells with mutant EGFR to IC50 for cells with wildtype EGFR (Mut/WT) (EGFR S768I/V769L; PACC, S768I/V769L, Ba/F3, 72 hours): 0.7072
ratio of IC50 for cells with mutant EGFR to IC50 for cells with wildtype EGFR (Mut/WT) (EGFR Ex19del/C797S; PACC, Ex19del/C797S, Ba/F3, 72 hours): 0.0001375
ratio of IC50 for cells with mutant EGFR to IC50 for cells with wildtype EGFR (Mut/WT) (EGFR L858R/L792H; PACC, L858R/L792H, Ba/F3, 72 hours): 0.03125
ratio of IC50 for cells with mutant EGFR to IC50 for cells with wildtype EGFR (Mut/WT) (EGFR L858R/T790M/L718Q): 4.812
ratio of IC50 for cells with mutant EGFR to IC50 for cells with wildtype EGFR (Mut/WT) (EGFR Ex19del L718Q; PACC, Ex19del L718Q, Ba/F3, 72 hours): 4.812
ratio of IC50 for cells with mutant EGFR to IC50 for cells with wildtype EGFR (Mut/WT) (EGFR E709K G719S; PACC, E709K G719S, Ba/F3, 72 hours): 0.3636
ratio of IC50 for cells with mutant EGFR to IC50 for cells with wildtype EGFR (Mut/WT) (EGFR L858R/L718V; PACC, L858R/L718V, Ba/F3, 72 hours): 0.2408
ratio of IC50 for cells with mutant EGFR to IC50 for cells with wildtype EGFR (Mut/WT) (EGFR L747S; PACC, L747S, Ba/F3, 72 hours): 0.08122
ratio of IC50 for cells with mutant EGFR to IC50 for cells with wildtype EGFR (Mut/WT) (EGFR G719S; PACC, G719S, Ba/F3, 72 hours): 0.01105
ratio of IC50 for cells with mutant EGFR to IC50 for cells with wildtype EGFR (Mut/WT) (EGFR L858R/V834L): 0.002241
ratio of IC50 for cells with mutant EGFR to IC50 for cells with wildtype EGFR (Mut/WT) (EGFR L718V; PACC, L718V, Ba/F3, 72 hours): 0.6898
ratio of IC50 for cells with mutant EGFR to IC50 for cells with wildtype EGFR (Mut/WT) (EGFR S720P): 0.01834
ratio of IC50 for cells with mutant EGFR to IC50 for cells with wildtype EGFR (Mut/WT) (EGFR N771dupN G724S): 1.258
ratio of IC50 for cells with mutant EGFR to IC50 for cells with wildtype EGFR (Mut/WT) (EGFR S768I; PACC, S768I, Ba/F3, 72 hours): 0.145
